Values joined by “and” are separate entries in the source; they are usually repeats but may differ in a detail not shown here. Equal entries are not always repeated. Where two headings read alike, the source gives them in different places. * marks the point of attachment. Cbz = O=C(OCc1ccccc1)*; CH2F = FC*
Experiments:
Assay type in all cases: cell-based, human
HaCaT cells [1] = experiment: Annexin V/propidium iodide staining, flow cytometry; details: 40 μM pretreatment 1 h, then DHNA 24 h
Experimental: After DHNA treatment, HaCaT cells were resuspended in annexin V binding buffer (10 mM HEPES, 140 mM NaCl, and 2.5 mM CaCl2, pH 7.4) and then incubated with FITC-conjugated annexin V (Biosource International, Inc., USA), and 0.5 μg/mL propidium iodide (PI) for 15 min at room temperature in the dark. Cells were analyzed on a FACSCanto flow cytometer (BD Biosciences, San Jose, CA, USA) immediately and then analyzed using WinMDI 2.9 (developed by Dr. J. Trotter, Scripps Institute, La Jolla, CA, USA). The total number of early (FITC+/PI−) and late (FITC+/PI+) apoptotic cells was assessed. In another experiment, HaCaT cells were preincubated with 40 μM pan-caspase inhibitor Z-VAD-FMK (BD Pharmingen, San Diego, CA, USA) for 1 h before exposure to DHNA.

[2] = tested on: IL-1α release from NCTC 2544 cells; experiment: IL-1α release assay (ELISA)
Experimental: NCTC 2544 cells were seeded and treated with various concentrations of DHNA or dithranol for 72 h. After incubation, the microplate was centrifuged and conditioned medium was collected to determine the extracellular IL-1α (IL-1α release) using an IL-1α ELISA kit (Diaclone Research, France). All other steps were then according to the manufacturer's protocol. Results were expressed in pg/mL.

NCTC 2544 cells = experiment: Proliferation assay (sulphorhodamine B) on NCTC 2544; details: Homo sapiens, read-out: IC50 on growth
Excerpt: (§1) The spontaneously immortalized human epidermal keratinocyte HaCaT cells were purchased from China Centre for Type Culture Collection, Wuhan, China. The human foreskin fibroblast Hs-68 cells were purchased from the American Type Culture Collection (Manassas, VA, USA). The human undifferentiated keratinocyte NCTC 2544 cells were provided by Interlab Cell Line Collection (Genoa, Italy) and the immortalized human epidermal melanocyte PIG1 cells were a gift from Dr Caroline Le Poole (Loyola University Chicago, Maywood, IL, USA). HaCaT and Hs-68 cells were maintained in DMEM, NCTC 2544 in RPMI 1640 and PIG1 cells in Medium 254 with Human Melanocyte Growth Supplement-2, respectively. All cells were cultured in complete medium containing 10% FBS, 100 μg/mL of streptomycin, and 100 U/mL of penicillin (Gibco Laboratories) at 37°C in a humidified atmosphere of 5% CO2. Cell culture experiments were carried out at 60–80% confluent.
(§2) The ethyl acetate extract (EA) of Rubia cordifolia L. was isolated as described. 1,4-dihydroxy-2-naphthoic acid (98%), dithranol (≥90%), and EA were dissolved in DMSO as stock. All cells were seeded and treated with various concentrations of DHNA, dithranol or EA. After treatment, cells were fixed with cold 50% trichloroacetic acid and incubated 1 h at 4°C. Cell was then washed with deionized water, air-dried, and stained with 0.4% (w/v) sulphorhodamine B for 30 min at room temperature. Unincorporated dye was removed with 1% acetic acid wash and the cell was again air-dried. Incorporated dye was then solubilized in 10 mM Tris base and absorbance was measured at 565/690 nm using a Sunrise microplate spectrophotometer (Tecan, Switzerland). IC50 were determined using GraphPad Prism 5.0 (GraphPad Software, San Diego, CA, USA).

HaCaT cells [3] = experiment: Proliferation assay (sulphorhodamine B) on HaCaT; details: Homo sapiens, read-out: IC50 on growth
Excerpt: as §1, §2

| Compound | effect of pan-caspase inhibitor on DHNA-induced apoptosis (HaCaT cells [1]) | IL-1α release at concentrations below IC50 on NCTC 2544 ([2]; 2 to 3 μM or 0.45 to 0.68 μg/mL, 72 h) | IL-1α release versus vehicle control ([2]; 2 to 8 μM (0.45 to 1.81 μg/mL), 72 h) | concentration at which IL-1α release is significantly induced ([2]; NCTC 2544, 72 h, versus vehicle control) | IC50 (NCTC 2544 cells; NCTC 2544, incubation 48 h) | IC50 (NCTC 2544 cells; NCTC 2544, incubation 72 h) | IC50 (HaCaT cells [3]; incubation 48 h) | IC50 (HaCaT cells [3]; incubation 72 h) |
| --- | --- | --- | --- | --- | --- | --- | --- | --- |
| Cbz-Val-Ala-Asp-CH2F [reference compound] | partially blocked |  |  |  |  |  |  |  |
| O=C1c2c(O)cccc2Cc2cccc(O)c21 [Dithranol, dithranol, reference compound] |  | readily induced the release of this cytokine | induced significant release of this cytokine at all concentrations tested | 2 μM and 0.45 μg/mL | 6.21 µM and 1.41 µg/mL | 3.81 µM and 0.86 µg/mL | 24.8 µM and 5.6 µg/mL | 9.39 µM and 2.12 µg/mL |
